In one experiment the test system is breast carcinoma 4T1. The procedure:
In the examples below, the MRI scanner Bruker BioSpec BC70/30 USR with the constant field of 7.05 T, equipped with a surface transmitting-and-receiving coil with a diameter of 3 cm and a scan depth of ca. 1 cm was used.
To register deuterium image the FLASH (Fast low angle shot) pulse sequence was used.
For experiments with the broadband excitation the following settings were used: the excitation frequency was determined by ^2H NMR spectrum and was sfo1≈46.1745 MHz, a rectangular excitation pulse with a width of 1300 Hz and a power of 36 dB, the flip angle FA=30°, the repetition time TR=11.8 MS, echo time TE=4.4 msec, a scan area of 10 cm×10 cm, scan matrix, 50×50, slice thickness 3 cm, bandwidth of 12500 Hz, total scan time 10 minutes (1030 averages).
In this example, experiments were conducted on mice Balb/c inoculated with breast carcinoma 4T1 (injection of 5×10^5 cells/60 μl under the left front paw for 10 days before experiment) and in healthy Balb/c mice.
A solution of 20-72 mg of 3-O-CD3-glucose was administered to an animal weighing 20 g was injected intraperitoneally, intravenously or via gavage (intraperitoneal: 0.5 ml of a saline solution; intravenous: 0.2 ml of water; oral: 0.25 ml of a saline solution). After injection, the animal was kept in a separate cage with free access to food and water within specified time. For imaging the animal was immobilized with isoflurane. The surface transmitting-and-receiving coil was fixed on the body of the mouse from the dorsal side in the thoracic region.

Another experiment concerns tumor. The experiment is described as follows: Preliminary 2H MRI tumor visualization experiments with glucose derivatives. Type of experiment: in vivo. From the text: The authors of this invention have studied various derivatives of glucose as a potential diagnostic agent. It was discovered that not all glucose derivatives can be used for the diagnostics of oncological diseases through ^2H MRI or ^2H NMR.

For the compound `[2H]C([2H])([2H])O[C@H]1[C@H](O)[C@@H](CO)OC(O)[C@@H]1O` (stereo partly drawn) [3-O-CD3-glucose], the “accumulation in tumor by 2H MRI after intravenous injection” value in the experiment on breast carcinoma 4T1 (20 mg intravenous, 50 minutes, mouse no. 3 (FIG. 9)) is on record as “accumulation of 3-O-CD3-glucose in the tumor”. For the same compound, the “location of agent by 2H MRI after oral administration, late” value in the experiment with breast carcinoma 4T1 (70 mg oral, 100 min (text: 115 min), mouse no. 4 (FIG. 10)) is listed as “accumulated in tumors”. For the same compound, in the experiment with breast carcinoma 4T1 (72 mg intraperitoneal, 20-320 min after administration, mouse no. 2 (FIGS. 5-8)), the “accumulation in tumor visualized by 2H MRI” value is recorded as “accumulated in the tumor in sufficient concentration to be visualized”. The “2H MRI signal in control mouse without tumors” value in the experiment on breast carcinoma 4T1 (72 mg intraperitoneal, 40 minutes after administration, mouse no. 1) was “missing an area with a strong signal of deuterium”. The “valid range of the diagnostic agent doses” value in the experiment on breast carcinoma 4T1 (mouse, FIGS. 5-9) is recorded as 1-3.5 g per 1 kg of animal weight.

Turning to `OCC1OC(O)C(O)C(O)C1O` (stereo not drawn) [6,6-D2-glucose], the “tumor visualization by 2H MRI” value with tumor is reported as “not possible to accurately visualize the tumor”.

Source of the values: patent publication US12115232B2, “Preparation for magnetic resonance diagnostics for oncological diseases, comprising deuterated 3-O-methylglucose, and diagnostic method using said preparation” (SOLVEX LIMITED LIABILITY COMPANY, priority 2017, dated 2024).
